US20040157811A1, “Inhibition of the growth factor dependency of tumor cells” (priority 2000, published 2004)
Entries after “also recorded” stand apart in the source; their conditions may differ. Blank lines part the entries; values can stand above or below the molecule they belong to.

Experiments:
[1] = tested on: binding of EGF to T47D cells; assay: Binding of 125I-EGF to tumor cells (R5020-pretreated T47D cells); format: cell-based, human; conditions: for block of the R5020-caused increase of 125I-EGF binding to intact T47D cells: T47D cells treated 48 hours with 2 or 20 nM R5020 plus test substance, FIG. 5
Procedure: R5020-Pretreated T47D cells were incubated for 2 hours with ^125I-EGF at 4° C. The unspecific binding was always less than 10% of the total binding.
In FIG. 4, a Scatchard analysis of the ^125I-EGF binding to T47D cells is shown. The cells were cultivated for 48 hours in the presence of 20 nM of R5020 with or without 20 nM of compound A and then washed. Then, the EGF-binding over a concentration range of 0.25 to 150 ng/ml of EGF was determined by incubation for 2 hours at 4° C. The insertions show the amount of bonded ligands relative to the logarithm of the free ligand concentration.
In FIG. 5, the binding of ^125I-EGF to intact T47D cells is shown. For this purpose, the cells were treated for 48 hours with 2 or 20 nM of R5020 plus compound A or onapristone or compound A alone.

[2] = tested on: breast carcinoma cell line T47D; assay: Growth studies, antiproliferative action on T47D cells (crystal violet); format: cell-based, human; conditions: 0.1 nM estradiol, 6 days, increasing concentrations, FIG. 1
Procedure: The tumor cells were cultivated at 5000 cells/well in 96-well plates for 6 days in RPMI medium plus 10% bovine serum, 200 nM of insulin and 0.1 nM of estradiol in the presence of the compounds that are indicated in each case, and the growth was determined by staining with crystal violet.
2. […] T47D cells were cultivated in the presence (upper cross-hatching) or absence (lower cross-hatching) of 0.1 nM of E2 plus increasing concentrations of compound A (▴), onapristone (▪), ZK191703 (●) or 4-OH-Tam (♦).

[3] = molecular target: T1, progesterone receptor (PR) (Homo sapiens, UniProt P06401); assay: Transactivation assay (MTV-LUC, luciferase) in T47D cells; format: cell-based; conditions: T47D cells transiently transfected with MTV-LUC, treated with R5020 plus increasing concentrations, 24 hours, FIG. 3
T1 construct: T47D cells were transiently transfixed with MTV-LUC; endogenous in cells; host or cells: T47D human breast carcinoma cells
T1 sequence (P06401 1-933): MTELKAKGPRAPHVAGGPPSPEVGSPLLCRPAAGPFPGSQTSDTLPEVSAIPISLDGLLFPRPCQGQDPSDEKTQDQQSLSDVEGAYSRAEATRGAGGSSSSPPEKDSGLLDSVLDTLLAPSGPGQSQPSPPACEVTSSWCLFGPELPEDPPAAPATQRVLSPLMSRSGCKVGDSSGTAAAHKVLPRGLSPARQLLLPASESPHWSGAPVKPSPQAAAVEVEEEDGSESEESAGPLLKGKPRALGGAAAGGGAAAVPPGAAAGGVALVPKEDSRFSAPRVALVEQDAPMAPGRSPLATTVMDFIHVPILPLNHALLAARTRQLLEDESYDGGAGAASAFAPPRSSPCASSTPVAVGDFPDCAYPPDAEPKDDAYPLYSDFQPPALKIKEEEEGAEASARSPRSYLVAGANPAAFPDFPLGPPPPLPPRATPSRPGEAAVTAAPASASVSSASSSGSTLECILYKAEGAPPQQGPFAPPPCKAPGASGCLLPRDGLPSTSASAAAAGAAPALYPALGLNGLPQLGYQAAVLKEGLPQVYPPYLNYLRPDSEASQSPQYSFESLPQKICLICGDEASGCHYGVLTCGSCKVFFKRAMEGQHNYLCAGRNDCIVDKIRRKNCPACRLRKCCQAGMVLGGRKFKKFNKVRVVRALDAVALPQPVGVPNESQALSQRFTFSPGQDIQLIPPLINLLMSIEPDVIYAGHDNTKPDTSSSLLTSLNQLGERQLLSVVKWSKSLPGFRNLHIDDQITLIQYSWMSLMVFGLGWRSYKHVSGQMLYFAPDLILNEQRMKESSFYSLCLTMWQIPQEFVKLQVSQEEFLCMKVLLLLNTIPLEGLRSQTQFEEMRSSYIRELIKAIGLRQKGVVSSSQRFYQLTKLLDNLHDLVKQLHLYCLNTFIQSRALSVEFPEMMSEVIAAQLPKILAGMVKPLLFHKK
Procedure: T47D cells were transiently transfixed with MTV-LUC (Cato et al., EMBO J., 9: 2237-40) and cultivated in the absence or the presence of 1 nM of R5020. In the test on a PR-mediated antagonism, the transiently transfixed T47D cells were treated with R5020 and in addition with increasing concentrations of compound A or RU486. After 24 hours, a luciferase test was performed.
In the test for a PR-mediated antagonism, the transiently transfixed T47D cells were treated with 0.1 nM of R5020 and increasing concentrations of compound A or […] (b).

EGF-receptor expression = EGF-receptor expression in R5020-stimulated T47D cells; format: cell-based, human; conditions: T47D cells stimulated with R5020

Compound: CN(C)c1ccc([C@H]2C[C@]3(C)[C@@H](CC[C@]3(O)CCCO)[C@@H]3CCC4=CC(=O)CCC4=C32)cc1 [onapristone, 11β-[p-(dimethylamino)phenyl]-17α-hydroxy-17-(3-hydroxypropyl)-13α-estra-4,9-dien-3-one, reference compound]
- block of the R5020-caused increase of 125I-EGF binding to intact T47D cells [1]: considerably weaker effect; also recorded: less efficiently

- block of transcriptional activity of PR (PR-mediated antagonism) [3]: could be blocked
Compound: CC(=O)c1ccc([C@H]2C[C@@]3(C)[C@@H](CC[C@@]3(O)C(F)(F)C(F)(F)F)[C@@H]3CCC4=CC(=O)CCC4=C32)cc1 [compound A, 11β-(4-acetylphenyl)-17β-hydroxy-17α-(1,1,2,2,2-pentafluoroethyl)-estra-4,9-dien-3-one]
- antiproliferative action / block of estradiol-stimulated growth of T47D cells [2]: significant antiproliferative action at extremely small concentrations; also recorded: effectively blocked
- block of R5020-increased EGF-receptor expression (EGF-receptor expression): blocked
- block of the R5020-caused increase of 125I-EGF binding to intact T47D cells [1]: blocks the increase of the EGF-binding; also recorded: could be prevented
- block of the R5020-caused increase of 125I-EGF binding (Scatchard analysis) ([1]; T47D cells, 48 hours, 20 nM R5020 with 20 nM compound A, EGF 0.25 to 150 ng/ml, 2 hours at 4° C, FIG. 4): block the increase of the EGF binding
